Data from article PMC3020970, “K70Q Adds High-Level Tenofovir Resistance to “Q151M Complex” HIV Reverse Transcriptase through the Enhanced Discrimination Mechanism” (PLoS ONE, 2011).
Structures can show the parent of a compound that is named as a salt.

What was measured:
Type in all cases: cell-based
[1] = tested on: HIV-1 clinical isolate 1 (Q151Mc-containing); test: Single-cycle drug susceptibility assay (MAGIC-5 cells), clinical isolate 1; details: Human immunodeficiency virus 1; clinical isolate 1, MAGIC-5 cells
Experimental: (§1) HIV was isolated from fresh plasma immediately after collection of clinical samples from study participants at the outpatient clinic of the AIDS Clinical Center (ACC), International Medical Center of Japan. The Institutional Review Board approved this study (IMCJ-H13-80) and a written consent was obtained from all participants.
(§2) Susceptibilities to various RT inhibitors were determined using the MAGIC-5 cells which are HeLa cells stably transfected with a β-galactosidase gene under the control of an HIV long terminal repeat promoter, and with vectors that express the CD4 receptor and the CCR5 co-receptor under the control of the CMV promoter as described previously. Briefly, MAGIC-5 cells were infected with diluted virus stock (100 blue forming units) in the presence of increasing concentrations of RT inhibitors, cultured for 48 h, fixed, and stained with X-Gal (5-bromo-4-chloro-3-indolyl-β-D-galacto-pyranoside). The stained cells were counted under a light microscope.

[2] = tested on: HIV-1 clinical isolate 2 (Q151Mc + K70Q); test: Single-cycle drug susceptibility assay (MAGIC-5 cells), clinical isolate 2; details: Human immunodeficiency virus 1; clinical isolate 2, MAGIC-5 cells
Experimental: as §1, §2

HIV-1 NL4-3 strain (WT) = test: microbe, parasite or virus in culture; details: Human immunodeficiency virus 1, NL43; WT, MAGIC-5 cells, Table S1; read-out: EC50
Experimental: as §2

HIV-1 WT = test: Single-cycle drug susceptibility assay (MAGIC-5 cells), recombinant WT clone; details: Human immunodeficiency virus 1, Table S2
Experimental: (§3) The NL4-3-based molecular clone was constructed by replacing the pol-coding region with the HIV-1 BH10 strain. […] Each molecular clone was transfected into COS-7 cells. Cells were grown for 48 h, and culture supernatants were harvested and stored at −80°C until use.
as §2

HIV-1 Q151Mc/K70N = test: Single-cycle drug susceptibility assay (MAGIC-5 cells)
Experimental: as §3, §2

HIV-1 Q151Mc/K70G = test: as above
Experimental: as §3, §2

HIV-1 K70Q = test: as above; details: Human immunodeficiency virus 1, MAGIC-5; K70Q
Experimental: as §3, §2

HIV-1 K70T = test: as above
Experimental: as §3, §2

HIV-1 Q151Mc/K70Q = test: as above
Experimental: as §3, §2

HIV-1 Q151Mc/K70T = test: as above
Experimental: as §3, §2

HIV-1 K70N = test: as above
Experimental: as §3, §2

HIV-1 K70G = test: as above
Experimental: as §3, §2

HIV-1 Q151Mc = test: as above; details: Human immunodeficiency virus 1, MAGIC-5
Experimental: as §3, §2

HIV-1 K70R = test: as above
Experimental: as §3, §2

HIV-1 Q151Mc/K70E = test: as above
Experimental: as §3, §2

HIV-1 Q151Mc/K70R = test: as above
Experimental: as §3, §2

HIV-1 K70E = test: as above
Experimental: as §3, §2

For `Cc1ccnc2c1NC(=O)c1cccnc1N2C1CC1` [NVP, nevirapine], the EC50 [1] was greater than 10000 nM, the EC50 [2] was greater than 10000 nM and the EC50 (HIV-1 NL4-3 strain (WT)) was 50 ± 4 nM.

With `CC(C)OC(=O)OCOP(=O)(CO[C@H](C)Cn1cnc2c(N)ncnc21)OCOC(=O)OC(C)C` [TFV-DF, tenofovir disoproxil fumarate] the EC50 [1] was 40 ± 10 nM, the EC50 [2] was 120 ± 20 nM and the EC50 (HIV-1 WT) was 20 ± 4 nM. The EC50 (HIV-1 Q151Mc/K70N; Human immunodeficiency virus 1, MAGIC-5, Q151Mc/K70N) was 60 ± 4 nM, the “Fold increase in EC50 compared to HIV-1 Q151Mc” value (shortened to “Fold increase … to HIV-1 Q151Mc”) (HIV-1 Q151Mc/K70N; Q151Mc/K70N vs Q151Mc) was “(1.5) fold” and the EC50 (HIV-1 Q151Mc/K70G; Human immunodeficiency virus 1, MAGIC-5, Q151Mc/K70G) was 40 ± 2 nM. For the same molecule, the “Fold increase … to HIV-1 Q151Mc” value (HIV-1 Q151Mc/K70G; Q151Mc/K70G vs Q151Mc) was “(1) fold”, the EC50 (HIV-1 K70Q) was 30 ± 3 nM and the EC50 (HIV-1 K70T; Human immunodeficiency virus 1, MAGIC-5, K70T) was 20 ± 3 nM. For the same molecule, the “Fold increase in EC50 compared to HIV-1 WT” value (shortened to “Fold increase … to HIV-1 WT”) (HIV-1 K70T; K70T vs WT) was “(1) fold”, the EC50 (HIV-1 Q151Mc/K70Q; Human immunodeficiency virus 1, MAGIC-5, Q151Mc/K70Q) was 200 ± 10 nM and the “Resistance (fold less susceptible than WT HIV-1)” value (HIV-1 Q151Mc/K70Q; K70Q/Q151Mc vs WT HIV-1) was 10 fold. The EC50 (HIV-1 Q151Mc/K70T; Human immunodeficiency virus 1, MAGIC-5, Q151Mc/K70T) was 50 ± 1 nM, the “Fold increase … to HIV-1 Q151Mc” value (HIV-1 Q151Mc/K70T; Q151Mc/K70T vs Q151Mc) was “(1.3) fold” and the EC50 (HIV-1 K70N; Human immunodeficiency virus 1, MAGIC-5, K70N) was 20 ± 3 nM. For the same molecule, the “Fold increase … to HIV-1 WT” value (HIV-1 K70N; K70N vs WT) was “(1) fold”, the EC50 (HIV-1 K70G; Human immunodeficiency virus 1, MAGIC-5, K70G) was 20 ± 3 nM and the “Fold increase … to HIV-1 WT” value (HIV-1 K70G; K70G vs WT) was “(1) fold”. For the same molecule, the EC50 (HIV-1 Q151Mc) was 40 ± 3 nM, the EC50 (HIV-1 K70R; Human immunodeficiency virus 1, MAGIC-5, K70R) was 20 ± 2 nM and the “Fold increase … to HIV-1 WT” value (HIV-1 K70R; K70R vs WT) was “(1) fold”. For the same molecule, the EC50 (HIV-1 Q151Mc/K70E; Human immunodeficiency virus 1, MAGIC-5, Q151Mc/K70E) was 30 ± 1 nM, the “Fold increase … to HIV-1 Q151Mc” value (HIV-1 Q151Mc/K70E; Q151Mc/K70E vs Q151Mc) was “(0.8) fold” and the EC50 (HIV-1 Q151Mc/K70R; Human immunodeficiency virus 1, MAGIC-5, Q151Mc/K70R) was 30 ± 2 nM. The “Fold increase … to HIV-1 Q151Mc” value (HIV-1 Q151Mc/K70R; Q151Mc/K70R vs Q151Mc) was “(0.8) fold”, the EC50 (HIV-1 K70E; Human immunodeficiency virus 1, MAGIC-5, K70E) was 20 ± 3 nM and the “Fold increase … to HIV-1 WT” value (HIV-1 K70E; K70E vs WT) was “(1) fold”. For the same molecule, the EC50 (HIV-1 NL4-3 strain (WT)) was 20 ± 3 nM.
